Results on 10 compounds are retold here after PubChem BioAssay (NCI).

Test systems include 786-0 renal; CAKI-1 renal; IGROV1 ovarian; M14 melanoma; MALME-3M melanoma; MDA-MB-231 breast; OVCAR-5 ovarian; RPMI-8226 leukemia; SK-MEL-5 melanoma; UACC-257 melanoma.
What all share (test): growth of human tumour cells (NCI), 48 h

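Where inhibition never reached the appropriate level, the endpoint shown equals the highest concentration tested. Otherwise, values were interpolated linearly from a five-concentration, 48-hour dose response in 96-well plates. Here, GI50 denotes the concentration required for 50% inhibition of growth. TGI is the concentration that stops growth completely.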

`CCN1C(=O)N(CC)C2C1NN=c1s/c(=C3\C(=O)Nc4ccccc43)c(=O)n12` (stereo not given): the GI50 is 0.588 µM in the assay with 786-0 renal; 0.404 µM with CAKI-1 renal; 0.616 µM in the assay on IGROV1 ovarian; 0.33 µM with M14 melanoma; 0.557 µM in the assay with MALME-3M melanoma; 2.41 µM in the assay with MDA-MB-231 breast. Further, the GI50 was 2.31 µM in the assay on OVCAR-5 ovarian, 0.306 µM with RPMI-8226 leukemia, 0.426 µM in the assay on SK-MEL-5 melanoma and 25.2 µM with UACC-257 melanoma. In addition, the TGI in the assay on 786-0 renal turned out to be 24.6 µM; with CAKI-1 renal it was 34.8 µM; in the assay with IGROV1 ovarian, 24.6 µM; in the assay with M14 melanoma it was 3.36 µM; in the assay on MALME-3M melanoma, 38.4 µM; in the assay with MDA-MB-231 breast, 49.9 µM. For the same compound, the TGI in the assay on OVCAR-5 ovarian is greater than 100 µM; in the assay with RPMI-8226 leukemia, 6.06 µM; in the assay on SK-MEL-5 melanoma, greater than 100 µM; with UACC-257 melanoma it was greater than 100 µM.
With `N[C@H]1CCC[C@@H](O)C1O` (stereo not given in full), the TGI with 786-0 renal, in the assay on CAKI-1 renal, in the assay with IGROV1 ovarian, with M14 melanoma, in the assay on MALME-3M melanoma and in the assay on MDA-MB-231 breast was greater than 100 µM each time. Further, the TGI with OVCAR-5 ovarian, with RPMI-8226 leukemia, in the assay on SK-MEL-5 melanoma and in the assay on UACC-257 melanoma was greater than 100 µM throughout.
With `CC(C)(C)OC(=O)N(CCCCN(CCCn1c2c(c3ccccc3c1=O)C(=O)c1ccccc1-2)C(=O)OC(C)(C)C)CCCn1c2c(c3ccccc3c1=O)C(=O)c1ccccc1-2`, the GI50 in the assay on 786-0 renal is 26.8 µM; in the assay with CAKI-1 renal it was 19.9 µM; in the assay with M14 melanoma, 31.3 µM; with MALME-3M melanoma, greater than 100 µM; in the assay with MDA-MB-231 breast, 13.9 µM; with RPMI-8226 leukemia, 17.9 µM. In addition, in the assay with SK-MEL-5 melanoma, the GI50 was 48.5 µM. For the same compound, the TGI with 786-0 renal is greater than 100 µM; in the assay on CAKI-1 renal, greater than 100 µM; in the assay with M14 melanoma it was greater than 100 µM; in the assay on MALME-3M melanoma, greater than 100 µM; with MDA-MB-231 breast it was 47.2 µM; in the assay with RPMI-8226 leukemia, 69.1 µM. Further, the TGI in the assay with SK-MEL-5 melanoma is greater than 100 µM.
`COc1ccc(C2=C(OC(C)=O)c3cccn3-c3ccc(Cl)cc3S2)cc1`: the TGI in the assay on 786-0 renal, with CAKI-1 renal, in the assay on IGROV1 ovarian, in the assay on M14 melanoma, in the assay on MALME-3M melanoma and in the assay on MDA-MB-231 breast was greater than 10 µM in each case. Besides, the TGI with RPMI-8226 leukemia was 6.21 µM; in the assay on SK-MEL-5 melanoma, greater than 10 µM; in the assay on UACC-257 melanoma, greater than 10 µM.
`O=C1c2ccccc2C(=O)c2c1ccc1conc21`: the TGI was 5.79 µM with 786-0 renal; 8.93 µM in the assay with CAKI-1 renal; 5.88 µM in the assay on IGROV1 ovarian; 5.7 µM in the assay on M14 melanoma; 4.75 µM in the assay on MALME-3M melanoma; 1.42 µM in the assay on MDA-MB-231 breast. The TGI in the assay with OVCAR-5 ovarian worked out at 6.93 µM; in the assay on RPMI-8226 leukemia it was 3.85 µM; with SK-MEL-5 melanoma it was 4.83 µM; with UACC-257 melanoma, 4.37 µM.
Regarding `CN(c1cccc(C(=O)O)c1)c1cc(O/N=[N+](\[O-])N(C)C)c([N+](=O)[O-])cc1[N+](=O)[O-]`, the GI50 in the assay with 786-0 renal, in the assay on CAKI-1 renal, with IGROV1 ovarian, in the assay with MDA-MB-231 breast, in the assay on OVCAR-5 ovarian and in the assay on RPMI-8226 leukemia was greater than 100 µM in each case. Further, the GI50 in the assay with SK-MEL-5 melanoma and in the assay on UACC-257 melanoma was greater than 100 µM throughout. Moreover, the TGI with 786-0 renal, in the assay on CAKI-1 renal, with IGROV1 ovarian, with MDA-MB-231 breast, with OVCAR-5 ovarian and in the assay with RPMI-8226 leukemia was greater than 100 µM each time. The TGI in the assay with SK-MEL-5 melanoma and with UACC-257 melanoma was greater than 100 µM in each case.
On to `CN(C)S(=O)(=O)c1cccc(C(=O)Nc2nc(-c3ccc(F)c(F)c3)cs2)c1`, for which the GI50 with 786-0 renal is 18.8 µM; in the assay on CAKI-1 renal it was 10.9 µM; in the assay with IGROV1 ovarian, 28 µM; in the assay with M14 melanoma, 23.5 µM; with MALME-3M melanoma, 18.6 µM; in the assay on MDA-MB-231 breast, 20.6 µM. Moreover, the GI50 in the assay with OVCAR-5 ovarian is 98.4 µM; with RPMI-8226 leukemia, 4.51 µM; in the assay on SK-MEL-5 melanoma it was 3.81 µM; with UACC-257 melanoma, 6.24 µM. Besides, the TGI was 90.4 µM with 786-0 renal; greater than 75.9 µM in the assay with CAKI-1 renal; greater than 96.4 µM with IGROV1 ovarian; greater than 100 µM in the assay with M14 melanoma; 99.4 µM in the assay with MALME-3M melanoma; greater than 100 µM with MDA-MB-231 breast. In addition, the TGI with OVCAR-5 ovarian is greater than 100 µM; in the assay on RPMI-8226 leukemia it was greater than 29.4 µM; with SK-MEL-5 melanoma it was greater than 25.2 µM; with UACC-257 melanoma, greater than 100 µM.
Consider `Nc1[nH]nc(Nc2ccccc2)c1-c1nc2ccccc2s1`, for which the GI50 in the assay on 786-0 renal was 1.34 µM; with IGROV1 ovarian, 2.58 µM; in the assay with M14 melanoma, 1.55 µM; in the assay on MALME-3M melanoma, 2.79 µM; in the assay with MDA-MB-231 breast it was 1.59 µM; in the assay with OVCAR-5 ovarian it was 2.26 µM. Further, the GI50 was 2.24 µM in the assay with RPMI-8226 leukemia and 4.66 µM in the assay with SK-MEL-5 melanoma. Besides, the TGI with 786-0 renal worked out at 3.08 µM; in the assay on IGROV1 ovarian it was 8.88 µM; with M14 melanoma, 3.58 µM; with MALME-3M melanoma, 8.58 µM; in the assay on MDA-MB-231 breast, 3.75 µM; with OVCAR-5 ovarian, 8.77 µM. Moreover, the TGI was 6.65 µM in the assay on RPMI-8226 leukemia and 15.8 µM in the assay on SK-MEL-5 melanoma.
Consider `O=C1c2ccccc2C(=O)N1c1ccc(Cc2ccc(N3C(=O)c4ccccc4C3=O)cc2)cc1`, for which the TGI with 786-0 renal, in the assay on CAKI-1 renal, in the assay with IGROV1 ovarian, in the assay with M14 melanoma, with MALME-3M melanoma and in the assay on MDA-MB-231 breast was greater than 100 µM throughout. For the same compound, the TGI in the assay with OVCAR-5 ovarian, in the assay with RPMI-8226 leukemia, in the assay with SK-MEL-5 melanoma and in the assay on UACC-257 melanoma was greater than 100 µM each time.
Regarding `COc1ccc([N+](=O)[O-])c2c(NCCCN(C)C)c(C)c(C)nc12`, the TGI in the assay with 786-0 renal, in the assay on CAKI-1 renal, in the assay on IGROV1 ovarian, in the assay on M14 melanoma, in the assay on MALME-3M melanoma and in the assay on MDA-MB-231 breast was greater than 100 µM throughout. For the same compound, the TGI with OVCAR-5 ovarian, with RPMI-8226 leukemia, with SK-MEL-5 melanoma and in the assay with UACC-257 melanoma was greater than 100 µM in each case.
